In ChEMBL document CHEMBL4354808, “Drugs for the Treatment of Zika Virus Infection” (J Med Chem, 2020):
Values after ≈ are worked out from the molar mass of the structure shown.

Assays:
Zika virus [1] = assay: Antiviral activity against Zika virus PLCal_ZV infected in human Neural progenitor cells; assay type: functional, organism-based
Zika virus [2] = assay: Antiviral activity against Zika virus PLCal_ZV infected in African green monkey Vero cells assessed as reduction in viral titer after 1 hr by plaque assay; assay type: functional, organism-based
Nonstructural protein 3 [3] = molecular target: T1, Nonstructural protein 3 (Zika virus, UniProt A0A024AXB9); assay: Inhibition of Zika virus NS2B (1421 to 1469 residues) - NS3 (1503 to 1688 residues) expressed in Escherichia coli BL21(DE3) cells using Dabcyl-KTSAVLQSGFRKME-Edans as substrate after 11 mins by FRET assay
[4] = Cytotoxicity against African green monkey Vero cells by MTT assay; assay type: cell-based; conditions: chlorocebus sabaeus
[5] = Cytotoxicity against HEK293 cells; assay type: cell-based; conditions: human
[6] = Cytotoxicity against human SNB19 cells; assay type: cell-based; conditions: SNB-19 cells
Zika virus [7] = assay: Antiviral activity against Zika virus MR766 infected in African green monkey Vero cells by plaque assay; assay type: functional, organism-based
[8] = Cytotoxicity against BHK21 cells after 24 to 48 hrs by CCK8 assay; assay type: cell-based, Mesocricetus auratus; conditions: hamster, BHK-21 cells
Nonstructural protein 3 [9] = molecular target: T1, Nonstructural protein 3; assay: Inhibition of Zika virus Asian/8375 NS2B (48 to 100 residues)-NS3 (14 to 185 residues) expressed in Escherichia coli BL21 (DE3) Star cells preincubated for 30 mins followed by Bz-nKRR-AMC substrate addition
[10] = Cytotoxicity against human HuH7 cells by MTT assay; assay type: cell-based; conditions: Huh-7 cells
[11] = Cytotoxicity against African green monkey Vero cells; assay type: cell-based; conditions: chlorocebus sabaeus
NS5 [12] = molecular target: T2, NS5 (Zika virus, UniProt A0A143MHK7); assay: Inhibition of Zika virus MTase (4 to 278 residues) expressed in Escherichia coli T7 using GpppAC4 as substrate in presence of [3H]SAM incubated for 30 mins by liquid scintillation counter method
NS5 [13] = molecular target: T2, NS5; assay: Inhibition of Zika virus MTase (4 to 278 residues) expressed in Escherichia coli T7 using A27 RNA as substrate in presence of [3H]SAM incubated for 30 mins by liquid scintillation counter method
[14] = Cytotoxicity against human Neural progenitor cells; assay type: cell-based
[15] = Cytotoxicity against African green monkey Vero cells by visual method; assay type: cell-based; conditions: chlorocebus sabaeus

T1 sequence (A0A024AXB9 whole entry, the tested form may be a part): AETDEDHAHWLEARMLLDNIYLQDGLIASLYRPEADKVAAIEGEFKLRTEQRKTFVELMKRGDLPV
T2 sequence (A0A143MHK7 whole entry, the tested form may be a part): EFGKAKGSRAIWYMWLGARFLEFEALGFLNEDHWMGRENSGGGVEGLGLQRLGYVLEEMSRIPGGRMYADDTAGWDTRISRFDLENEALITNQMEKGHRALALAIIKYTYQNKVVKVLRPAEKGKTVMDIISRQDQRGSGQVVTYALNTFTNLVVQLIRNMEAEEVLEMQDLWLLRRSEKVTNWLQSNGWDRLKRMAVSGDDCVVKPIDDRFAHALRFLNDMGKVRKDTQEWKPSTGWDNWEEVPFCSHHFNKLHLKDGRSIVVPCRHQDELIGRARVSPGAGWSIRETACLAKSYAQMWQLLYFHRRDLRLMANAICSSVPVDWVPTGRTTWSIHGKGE

## CCN(CC)Cc1cc(Nc2ccnc3cc(Cl)ccc23)ccc1O [AMODIAQUINE]
Zika virus [1]
  EC50: 2.8 to 4.4 µM
Zika virus [2]
  EC50: 2.8 to 4.4 µM

## O=c1c(O[C@@H]2O[C@H](CO)[C@@H](O)[C@H](O)[C@H]2O)c(-c2ccc(O)cc2)oc2cc(O)cc(O)c12 [ASTRAGALIN]
Nonstructural protein 3 [3]
  IC50: 112 µM

## CC(C)C[C@H]1C(=O)N2CCC[C@H]2[C@]2(O)O[C@](NC(=O)[C@@H]3C=C4c5cccc6[nH]c(Br)c(c56)C[C@H]4N(C)C3)(C(C)C)C(=O)N12 [BROMOCRIPTINE]
[4]
  CC50: > 40 µM

## CC[C@H]1CN2CCc3cc(OC)c(OC)cc3[C@@H]2C[C@@H]1C[C@H]1NCCc2cc(OC)c(OC)cc21 [EMETINE]
[5]
  CC50: 0.18 µM
[6]
  CC50: 0.086 µM

## O=C(O[C@@H]1Cc2c(O)cc(O)cc2O[C@@H]1c1ccc(O)c(O)c1)c1cc(O)c(O)c(O)c1 [EPICATECHIN GALLATE]
Nonstructural protein 3 [3]
  IC50: 89 µM

## O=C(O[C@@H]1Cc2c(O)cc(O)cc2O[C@@H]1c1cc(O)c(O)c(O)c1)c1cc(O)c(O)c(O)c1 [EPIGALOCATECHIN GALLATE]
Nonstructural protein 3 [3]
  IC50: 87 µM

## O=C(O[C@@H]1Cc2c(O)cc(O)cc2O[C@H]1c1cc(O)c(O)c(O)c1)c1cc(O)c(O)c(O)c1 [GALLOCATECHIN GALLATE]
Nonstructural protein 3 [3]
  IC50: 99 µM

## CC(C)(C)NCc1ccc(Nc2ccnc3cc(Cl)ccc23)cc1O [GSK-369796]
Zika virus [7]
  EC50: 2.57 µM
[8]
  CC50: 98 µM

## O=c1cc(-c2ccc(O)c(O)c2)oc2cc(O)cc(O)c12 [LUTEOLIN]
Nonstructural protein 3 [3]
  IC50: 53 µM

## O=c1c(O)c(-c2cc(O)c(O)c(O)c2)oc2cc(O)cc(O)c12 [MYRICETIN]
Nonstructural protein 3 [9]
  IC50: 1.3 µM
  Ki: 0.8 µM
Nonstructural protein 3 [3]
  IC50: 22 µM

## CO[C@@H]1[C@@H](OC(N)=O)[C@@H](O)[C@H](Oc2ccc3c(O)c(NC(=O)c4ccc(O)c(CC=C(C)C)c4)c(=O)oc3c2C)OC1(C)C [NOVOBIOCIN]
[10]
  CC50: 1100 µg/mL (≈ 1800 µM)
[4]
  CC50: 850 µg/mL

## CCN(CC)CCCC(C)Nc1c2ccc(Cl)cc2nc2ccc(OC)cc12 (stereo unspecified) [QUINACRINE]
Zika virus [7]
  EC50: 2.27 µM
[8]
  CC50: 18.6 µM

## NC(=O)c1ncn([C@@H]2O[C@H](CO)[C@@H](O)[C@H]2O)n1 [RIBAVIRIN]
[11]
  CC50: > 100 µM

## C[C@@H]1O[C@@H](OC[C@H]2O[C@@H](Oc3c(-c4ccc(O)c(O)c4)oc4cc(O)cc(O)c4c3=O)[C@H](O)[C@@H](O)[C@@H]2O)[C@H](O)[C@H](O)[C@H]1O [RUTIN]
Nonstructural protein 3 [3]
  IC50: 104 µM

## Nc1ncnc2c1ncn2[C@@H]1O[C@H](C[C@@H](N)CC[C@H](N)C(=O)O)[C@@H](O)[C@H]1O [SINEFUNGIN]
NS5 [12]
  IC50: 1.18 µM
NS5 [13]
  IC50: 1.62 µM

## CC(C)OC(=O)[C@H](C)N[P@](=O)(OC[C@H]1O[C@@H](n2ccc(=O)[nH]c2=O)[C@](C)(F)[C@@H]1O)Oc1ccccc1 [SOFOSBUVIR]
[14]
  CC50: 360 to 512 µM
[11]
  CC50: 360 to 512 µM

## Nc1ncnc2c1ccn2[C@@H]1O[C@H](CO)[C@@H](O)[C@H]1O [TUBERCIDIN]
[15]
  CC50: > 357 µM
